Type in all cases: cell-based
The test system of one assay is rat aorta. The experiment in a line: Carbachol-induced relaxation of anisomycin-treated rat aorta. As to conditions: NiPp 500 μM 30 min pretreatment, then anisomycin 200 μM 1 h. The protocol: (§1) RA rings were suspended in a muscle bath and incubated with either buffer alone (Ctrl), Aniso (200 μM) for 1 h, or NiPp (500 μM) for 30 min followed by Aniso (200 μM) for 1 h. […] Proteins were extracted […] immunoblotted to examine p38MAPK phosphorylation. Quantification of relative phosphorylation to total p38MAPK level is shown. n=10, *p<0.05 in one-way ANOVA with Tukey post-test. NiPp restores endothelial dysfunction and reduced p38 MAPK phosphorylation induced by anisomycin in RA.
RA rings were suspended in a muscle bath and incubated with either buffer alone (Ctrl), Aniso (200 μM) for 1 h, or NiPp (500 μM) for 30 min followed by Aniso (200 μM) for 1 h. […] The force generated was determined and was adjusted to the weight and length of the tissue. Representative tracings from 1 out of 6 different rats are shown. […] Proteins were extracted and phosphorylation of p38 MAPK was determined by Western blot analysis. […] Data are expressed as mean±SD. […]
This produced the maximal force tension relationship as previously described. […] Contractile responses were defined by stress, calculated using force generated by tissues as follows: stress (×10^5 N/m^2)=force (g)×0.0987/area, where area=wet weight (mg)/at maximal length (mm)]/1.055.
Relaxation was calculated as percent change in stress compared to the maximal PE-induced contraction (set as 100%). […]

Assay [1] has as its system human saphenous veins (HSV). Briefly: Endothelial-dependent relaxation of human saphenous veins from CABG patients, muscle bath. As to conditions: human saphenous vein; for endothelial function (percent relaxation to carbachol) in HSV / relaxation responses normalized to baseline relaxation in HSV: 1 hour; for relaxation responses normalized to baseline relaxation in HSV: mean±SD. On the procedure:
Human saphenous veins (HSV) were collected from patients undergoing coronary artery bypass grafting procedures and treated with NiPp (500 μM) for 1 hour at room temperature. PE-precontracted tissues were treated with carbachol (CCH; 10^−8 to 10^−5M). Percent relaxation was determined as a change to the maximal PE-induced contraction. Data are reported as mean responses±standard deviation. n=2. Baseline endothelial function in HSV was low.
PE-precontracted tissues were treated with carbachol (CCH; 10^−8 to 10^−5M). Percent relaxation were determined as a change to the maximal PE-induced contraction. Data are reported as mean responses±standard deviation. n=10. […] When normalized to baseline relaxation, NiPp led to 255±321.5% in relaxation responses in HSV.
HSV were suspended in the muscle bath, contracted with PE and treated with carbachol (CCH; 10^−8 to 10^−5 M). The percent relaxation was determined as a change to the maximal PE-induced contraction. Percent relaxation to 5×10^−6 M CCH is shown. n=10; *p<0.05 in paired t-test. […] Data are expressed as mean±SD.
Human saphenous veins (HSV) was obtained under approval from the Institutional Review Board of Vanderbilt University Medical Center from consented patients undergoing coronary artery bypass grafting procedures. HSV segments were collected immediately following surgical harvest and transported to the laboratory in PL for immediate experimentation.
Measurement of endothelial-dependent relaxation. Rings of HSV or RA (1-2 mm) were suspended in a muscle bath containing a bicarbonate buffer (120 mM sodium chloride, 4.7 mM potassium chloride, 1.0 mM magnesium sulfate, 1.0 mM monosodium phosphate, 10 mM glucose, 1.5 mM calcium chloride, and 25 mM sodium bicarbonate, pH 7.4) equilibrated with 95% O2/5% CO2 at 37° C. for 1 h at a resting tension of 1 g, manually stretched to three times the resting tension, and maintained at resting tension for an additional 1 h.
This produced the maximal force tension relationship as previously described. After equilibration, the rings were primed with 110 mM potassium chloride (with equimolar replacement of sodium chloride in bicarbonate buffer) to determine functional viability. Viable rings were then tested for contractile response to a dose of phenylephrine (PE) to yield submaximal contraction (approximately 60-70% of maximum KCl; 5×10^−6 M for HSV and 1-5×10^−7 M for RA) and relaxed with carbachol (CCH, 5×10^−7 M), an acetylcholine analogue, to determine endothelial-dependent relaxation responses. Force measurements were obtained using the Radnoti force transducer (model 159901A, Radnoti LLC, Monrovia, CA) interfaced with a PowerLab data acquisition system and LabChart software (AD Instruments Inc., Colorado Springs, CO). Contractile responses were defined by stress, calculated using force generated by tissues as follows: stress (×10^5 N/m^2)=force (g)×0.0987/area, where area=wet weight (mg)/at maximal length (mm)]/1.055.
Relaxation was calculated as percent change in stress compared to the maximal PE-induced contraction (set as 100%). Each data point was averaged from at least two rings from the same specimen. To determine concurrent signaling events, tissues were frozen in liquid nitrogen at relevant timepoints.
This study illustrates that the NiPp polypeptide (SEQ ID NO:1) restores endothelial function in aged human saphenous veins. […]

Another assay concerns p38 MAPK phosphorylation. The experiment in a line: p38 MAPK phosphorylation (Western blot) in anisomycin-treated rat aorta. As to conditions: NiPp 500 μM 30 min pretreatment, then anisomycin 200 μM 1 h, immunoblot. On the procedure: as §1
RA rings were suspended in a muscle bath and incubated with either buffer alone (Ctrl), Aniso (200 μM) for 1 h, or NiPp (500 μM) for 30 min followed by Aniso (200 μM) for 1 h. […] The force generated was determined and was adjusted to the weight and length of the tissue. […] Proteins were extracted and phosphorylation of p38 MAPK was determined by Western blot analysis. […] Data are expressed as mean±SD.
p38 MAPK activation with Anisomycin. […] After treatments, endothelial-dependent relaxation was determined or tissues were snap-frozen for Western blot analysis.
Western blot Analysis. […] The protein-antibody complexes were visualized and quantified using the Odyssey Infrared Imaging System. Phosphorylation was calculated as a ratio of the phosphorylated protein to total protein and was then normalized to the untreated tissues (Ctrl) with the control value set as 1.0.
In general terms: A western blot detects proteins with antibodies after separation by electrophoresis.

“Also recorded” adds a separate entry of the source. Non-standard residues stand in square brackets, D forms with d. No end group written: not given here. pS = N[C@@H](COP(=O)(O)O)C(=O)O

With “YARAAARQARASPAARRA(pS)AILPG (YARAAARQARASPAARRA[pS]AILPG) [NiPp, Cell-permeant phosphopeptide mimetic of Niban: transduction domain … conjugated to the region surrounding serine 602 of Niban]”, in the assay with rat aorta, the “endothelial-dependent relaxation (5×10^−7 M CCH) in anisomycin-treated rat aorta” value is given as “improved; also recorded: prevented; also recorded: restores”. Further, the “endothelial-dependent relaxation in HSV (percent relaxation to 5×10^−6 M CCH)” value in assay [1] (NiPp 100 μM in PL, 2 h, room temperature, n=10) was “improves; also recorded: improvement”. For the same substance, the “endothelial function (percent relaxation to carbachol) in HSV” value in assay [1] (NiPp 100 μM, room temperature, n=10) was “increased endothelial function”; in assay [1] (NiPp 500 μM, room temperature, n=2) it was “increased endothelial function”. The “relaxation responses normalized to baseline relaxation in HSV” value in assay [1] (NiPp 100 μM, n=10) stood at 255±321.5%; in assay [1] (NiPp 500 μM, n=2), 183±24%. The “anisomycin-induced p38 MAPK phosphorylation relative to total p38 MAPK” value with p38 MAPK phosphorylation is “decreased; also recorded: reduced; also recorded: prevented”.

The record behind these values is patent publication US12583895B2, “Polypeptides for restoring endothelial function and methods of use thereof” (Vanderbilt University, priority 2019, dated 2026).
